Assay results published in patent publication EP4660182A1, “NAV1.7- AND/OR NAV1.8-INHIBITING ARYL PYRIDINE COMPOUNDS, PROCESSES FOR THE PREPARATION THEREOF, COMPOSITIONS, USES, METHODS FOR TREATMENT USING SAME, AND KITS” (Eurofarma Laboratórios S.A., priority 2023, dated 2024).

How the values were obtained:
[1] = biological target: T1, human sodium channels Nav 1.7 (Homo sapiens, UniProt Q15858); assay: Automated whole-cell voltage-clamp (ScreenPatch 384P) sodium current block, Nav 1.7; assay type: cell-based; details: CHO cells stably expressing human Nav 1.7; inactivation step -40 mV 8 s, test step 0 mV (TP1A); eight concentrations; exposure at least five minutes; room temperature; read-out: Nav1.7 IC50
T1 construct: expressed in transfected cells
Procedure, shortened: (§1)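 Stable CHO lines, whole-cell automated patch clamp at room temperature, ≥5 min exposure, eight concentrations. From -100 mV hold, 8 s at -40 mV, 20 ms at -100 mV, then test pulse to 10 mV (Nav 1.8) or 0 mV (Nav 1.7) at 0.05 Hz; peak-current % block fitted for IC50, averaged over repeats.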

[2] = biological target: T2, human sodium channels Nav 1.8 (Homo sapiens, UniProt Q9Y5Y9); assay: Automated whole-cell voltage-clamp (ScreenPatch 384P) sodium current block, Nav 1.8; assay type: cell-based; details: CHO cells stably expressing human Nav 1.8; inactivation step -40 mV 8 s, test step 10 mV (TP1A); eight concentrations; exposure at least five minutes; room temperature; read-out: Nav1.8 IC50
T2 construct: expressed in transfected cells
Procedure, shortened: as §1

T1 sequence (Q15858 whole entry): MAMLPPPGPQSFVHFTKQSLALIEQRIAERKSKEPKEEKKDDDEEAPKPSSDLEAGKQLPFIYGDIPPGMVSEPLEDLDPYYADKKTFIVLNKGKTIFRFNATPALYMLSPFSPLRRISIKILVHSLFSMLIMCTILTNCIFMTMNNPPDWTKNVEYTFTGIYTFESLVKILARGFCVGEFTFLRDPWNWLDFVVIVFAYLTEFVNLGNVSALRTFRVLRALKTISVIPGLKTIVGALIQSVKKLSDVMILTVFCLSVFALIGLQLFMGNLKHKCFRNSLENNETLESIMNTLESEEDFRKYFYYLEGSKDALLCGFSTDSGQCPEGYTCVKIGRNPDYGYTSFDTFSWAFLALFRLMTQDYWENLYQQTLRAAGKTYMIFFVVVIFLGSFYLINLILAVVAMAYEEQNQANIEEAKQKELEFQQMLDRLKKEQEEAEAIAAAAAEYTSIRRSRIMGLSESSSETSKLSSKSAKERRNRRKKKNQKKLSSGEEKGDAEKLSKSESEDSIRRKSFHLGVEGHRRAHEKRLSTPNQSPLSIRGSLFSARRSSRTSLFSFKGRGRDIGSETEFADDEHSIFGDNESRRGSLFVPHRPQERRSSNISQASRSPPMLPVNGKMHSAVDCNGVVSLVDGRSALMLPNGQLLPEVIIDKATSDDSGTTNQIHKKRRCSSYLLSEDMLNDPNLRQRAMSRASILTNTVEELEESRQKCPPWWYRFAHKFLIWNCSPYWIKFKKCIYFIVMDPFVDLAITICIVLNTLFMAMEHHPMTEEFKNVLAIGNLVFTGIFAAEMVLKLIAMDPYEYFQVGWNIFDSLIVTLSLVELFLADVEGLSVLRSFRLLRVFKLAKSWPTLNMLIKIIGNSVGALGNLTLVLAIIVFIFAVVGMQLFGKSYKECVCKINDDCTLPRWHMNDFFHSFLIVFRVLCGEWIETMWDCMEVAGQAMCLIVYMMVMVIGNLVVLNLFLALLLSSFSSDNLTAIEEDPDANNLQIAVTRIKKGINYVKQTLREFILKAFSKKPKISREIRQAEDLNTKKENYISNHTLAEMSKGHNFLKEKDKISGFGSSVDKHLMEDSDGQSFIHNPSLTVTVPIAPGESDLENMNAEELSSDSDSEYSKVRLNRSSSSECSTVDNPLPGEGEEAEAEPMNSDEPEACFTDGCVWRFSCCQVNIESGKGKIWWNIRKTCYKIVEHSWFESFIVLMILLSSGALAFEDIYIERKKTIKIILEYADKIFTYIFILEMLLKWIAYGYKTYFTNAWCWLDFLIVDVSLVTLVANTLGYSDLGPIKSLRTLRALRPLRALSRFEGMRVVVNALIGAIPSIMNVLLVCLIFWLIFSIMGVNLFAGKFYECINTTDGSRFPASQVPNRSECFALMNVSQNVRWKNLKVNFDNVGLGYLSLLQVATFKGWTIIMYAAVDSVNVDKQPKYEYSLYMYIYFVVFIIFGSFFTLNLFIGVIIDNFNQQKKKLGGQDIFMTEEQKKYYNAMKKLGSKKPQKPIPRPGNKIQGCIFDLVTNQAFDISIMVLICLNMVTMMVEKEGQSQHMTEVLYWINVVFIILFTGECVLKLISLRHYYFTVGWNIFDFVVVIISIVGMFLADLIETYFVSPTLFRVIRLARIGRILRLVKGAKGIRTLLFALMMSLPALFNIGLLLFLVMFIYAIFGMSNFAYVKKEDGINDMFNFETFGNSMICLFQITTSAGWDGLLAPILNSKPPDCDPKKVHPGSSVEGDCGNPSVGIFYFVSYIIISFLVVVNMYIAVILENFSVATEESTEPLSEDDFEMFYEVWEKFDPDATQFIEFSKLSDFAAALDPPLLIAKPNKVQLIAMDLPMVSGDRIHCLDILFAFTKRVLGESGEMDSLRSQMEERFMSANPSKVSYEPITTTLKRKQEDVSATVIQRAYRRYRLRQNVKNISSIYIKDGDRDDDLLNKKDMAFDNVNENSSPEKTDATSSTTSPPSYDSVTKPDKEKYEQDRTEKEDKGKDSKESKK
T2 sequence (Q9Y5Y9 whole entry): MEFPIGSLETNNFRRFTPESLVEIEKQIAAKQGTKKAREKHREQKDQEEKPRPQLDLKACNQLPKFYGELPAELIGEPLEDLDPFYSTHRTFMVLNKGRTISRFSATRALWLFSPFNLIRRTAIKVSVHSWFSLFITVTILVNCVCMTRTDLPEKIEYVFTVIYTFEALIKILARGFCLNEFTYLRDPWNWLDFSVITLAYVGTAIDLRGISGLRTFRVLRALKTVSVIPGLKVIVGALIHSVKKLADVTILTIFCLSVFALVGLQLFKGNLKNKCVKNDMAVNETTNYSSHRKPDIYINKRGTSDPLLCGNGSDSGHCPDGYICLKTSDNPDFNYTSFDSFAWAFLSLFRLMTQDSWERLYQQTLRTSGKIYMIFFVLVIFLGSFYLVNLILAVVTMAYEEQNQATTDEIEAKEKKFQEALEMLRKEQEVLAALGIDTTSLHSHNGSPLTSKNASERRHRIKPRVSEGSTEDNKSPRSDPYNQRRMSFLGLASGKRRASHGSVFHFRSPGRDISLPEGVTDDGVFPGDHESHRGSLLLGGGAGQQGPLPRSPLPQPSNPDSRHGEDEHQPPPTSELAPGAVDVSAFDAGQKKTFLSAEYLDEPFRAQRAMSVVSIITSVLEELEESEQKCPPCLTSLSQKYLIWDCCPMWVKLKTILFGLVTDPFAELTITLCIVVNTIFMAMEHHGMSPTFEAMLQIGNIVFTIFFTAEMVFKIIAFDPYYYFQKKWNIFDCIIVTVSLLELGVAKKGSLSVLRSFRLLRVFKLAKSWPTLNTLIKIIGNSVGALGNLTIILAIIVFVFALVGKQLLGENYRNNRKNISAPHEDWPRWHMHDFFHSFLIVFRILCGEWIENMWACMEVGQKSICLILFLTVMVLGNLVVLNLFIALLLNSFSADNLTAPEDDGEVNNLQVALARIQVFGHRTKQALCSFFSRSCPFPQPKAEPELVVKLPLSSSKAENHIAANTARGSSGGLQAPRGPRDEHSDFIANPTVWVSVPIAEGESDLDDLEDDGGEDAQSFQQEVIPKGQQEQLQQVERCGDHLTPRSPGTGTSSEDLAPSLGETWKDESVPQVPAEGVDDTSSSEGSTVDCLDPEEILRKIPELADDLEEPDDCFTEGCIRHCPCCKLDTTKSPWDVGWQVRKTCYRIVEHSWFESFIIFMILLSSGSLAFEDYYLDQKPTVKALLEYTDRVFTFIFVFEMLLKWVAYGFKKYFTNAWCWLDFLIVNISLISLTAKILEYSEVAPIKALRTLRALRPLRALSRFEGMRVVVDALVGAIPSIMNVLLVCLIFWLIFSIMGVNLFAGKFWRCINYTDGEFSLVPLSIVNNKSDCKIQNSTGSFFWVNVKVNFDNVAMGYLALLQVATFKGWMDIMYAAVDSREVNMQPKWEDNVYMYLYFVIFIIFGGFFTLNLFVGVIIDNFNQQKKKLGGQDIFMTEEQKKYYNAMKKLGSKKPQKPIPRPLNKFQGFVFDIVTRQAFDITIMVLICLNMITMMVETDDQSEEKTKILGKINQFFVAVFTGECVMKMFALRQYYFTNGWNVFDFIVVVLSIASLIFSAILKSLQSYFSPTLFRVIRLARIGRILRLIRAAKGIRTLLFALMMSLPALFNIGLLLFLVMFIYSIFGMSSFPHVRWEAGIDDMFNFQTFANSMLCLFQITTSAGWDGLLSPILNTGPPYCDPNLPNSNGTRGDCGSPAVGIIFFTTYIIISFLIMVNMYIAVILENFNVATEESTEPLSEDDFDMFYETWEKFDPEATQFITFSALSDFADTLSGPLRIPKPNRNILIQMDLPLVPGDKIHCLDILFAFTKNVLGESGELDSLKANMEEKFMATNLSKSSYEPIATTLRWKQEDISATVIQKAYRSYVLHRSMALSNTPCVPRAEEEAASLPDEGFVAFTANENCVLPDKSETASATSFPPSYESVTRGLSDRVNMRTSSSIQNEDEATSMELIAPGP

IC50 [1] [µM] | IC50 [2] [µM] | SMILES
> 1 | > 1 | CNS(=O)(=O)c1ccc(-c2cncc(C(=O)N/N=C/c3cc(OC)ccc3F)n2)cn1 [Compound 134, (E)-5-(6-(2-(2-fluoro-5-methoxybenzylidene)hydrazine-1-carbonyl)pyrazine-2-yl)-N-methylpyridine-2-sulfonamide]
> 1 | < 0.5 | O=C(N/N=C/c1ccccc1F)c1cncc(-c2ccc(OC(F)(F)F)nc2)n1 [Compound 89, (E)-N'-(2-fluorobenzylidene)-6-(6-(trifluoromethoxy)pyridine-3-yl)pyrazine-2-carbohydrazide]
> 1 | > 1 | CCOc1ccc(-c2cncc(C(=O)N/N=C/c3cc(OC4CN(C)C4)ccc3F)n2)cn1 [Compound 39, (E)-6-(6-ethoxypyridine-3-yl)-N'-(2-fluoro-5-((1-methylazetidine-3-yl)oxy)benzylidene) pyrazine-2-carbohydrazide]
> 1 | > 1 | CC(O)c1cncc(/C=N/NC(=O)c2cncc(-c3ccc(OC(F)F)nc3)n2)c1 (centres unmarked) [Compound 111, (E)-6-(6-(difluoromethoxy)pyridine-3-yl)-N'-((5-(1-hydroxyethyl)pyridine-3-yl)methylene)pyrazine-2-carbohydrazide]
> 1 | > 1 | COc1ccc(F)c(/C=N/NC(=O)c2cncc(-c3ccc(OC4CNC4)nc3)n2)c1 [Compound 139, (E)-6-(6-(azetidin-3-yloxy)pyridine-3-yl)-N'-(2-fluoro-5-methoxybenzylidene) pyrazine-2-carbohydrazide]
> 1 | < 0.5 | CCOc1ccc(F)c(/C=N/NC(=O)c2cncc(-c3ccc(OCC)nc3)n2)c1 [Compound 4, (E)-N'-(5-ethoxy-2-fluorobenzylidene)-6-(6-ethoxypyridine-3-yl)pyrazine-2-carbohydrazide]
> 1 | < 0.5 | COc1ccc(F)c(/C=N/NC(=O)c2cncc(-c3ccc(OC(F)(F)F)nc3)n2)c1 [Compound 83, (E)-N'-(2-fluoro-5-methoxybenzylidene)-6-(6-(trifluoromethoxy)pyridine-3-yl)pyrazine-2-carbohydrazide]
> 1 | > 1 | CCOc1ccc(-c2nc(C(=O)N/N=C/c3cc(OC)ccc3F)cnc2O)cn1 [Compound 66, (E)-6-(6-ethoxypyridine-3-yl)-N'-(2-fluoro-5-methoxybenzylidene)-5-hydroxypyrazine-2-carbohydrazide]
> 1 | > 1 | COc1ccc(F)c(/C=N/NC(=O)c2cncc(-c3ccc(OCCN)nc3)n2)c1 [Compound 135, (E)-6-(6-(2-aminoethoxy)pyridine-3-yl)-N'-(2-fluoro-5-methoxybenzylidene) pyrazine-2-carbohydrazide]
> 1 | > 1 | COc1cnc(F)c(/C=N/NC(=O)c2cncc(-c3ccc(OC4CNC4)nc3)n2)c1 [Compound 142, (E)-6-(6-(azetidin-3-yloxy)pyridine-3-yl)-N'-((2-fluoro-5-methoxypyridine-3-yl)methylene)pyrazine-2-carbohydrazide]
> 1 | > 1 | COc1cnc(F)c(/C=N/NC(=O)c2cncc(-c3ccc(OCC4CNC4)nc3)n2)c1 [Compound 143, (E)-6-(6-(azetidin-3-ylmethoxy)pyridine-3-yl)-N'-((2-fluoro-5-methoxypyridine-3-yl)methylene)pyrazine-2-carbohydrazide]
> 1 | > 1 | CCOc1ccc(-c2cncc(C(=O)N/N=C/c3ocnc3C)n2)cn1 [Compound 61, (E)-6-(6-ethoxypyridine-3-yl)-N'-((4-methyloxazole-5-yl)methylene)pyrazine-2-carbohydrazide]
> 1 | > 1 | COc1ccc(F)c(/C=N/NC(=O)c2cncc(-c3cnc4nc[nH]c4c3)n2)c1 [Compound 166, (E)-N'-(2-fluoro-5-methoxybenzylidene)-6-(1H-imidazo[4,5-b]pyridine-6-yl) pyrazine-2-carbohydrazide]

Further lines, the compound ahead of its results:

SMILES | IC50 [1] [µM] | IC50 [2] [µM]
CCOc1ccc(-c2cncc(C(=O)N/N=C/c3cc(OC)ccc3O)n2)cn1 [Compound 19, (E)-6-(6-ethoxypyridine-3-yl)-N'-(2-hydroxy-5-methoxybenzylidene)pyrazine-2-carbohydrazide] | > 1 | 0.5 to 1
COc1cnc(F)c(/C=N/NC(=O)c2cncc(-c3cnc(OC(F)F)cc3C)n2)c1 [Compound 160, (E)-6-(6-(difluoromethoxy)-4-methylpyridine-3-yl)-N'-((2-fluoro-5-methoxypyridine-3-yl)methylene)pyrazine-2-carbohydrazide] | < 0.5 | < 0.5
CCOc1ccc(-c2cncc(C(=O)N/N=C/c3cc(O)cnc3F)n2)cn1 [Compound 28, (E)-6-(6-ethoxypyridine-3-yl)-N'-((2-fluoro-5-hydroxypyridine-3-yl)methylene)pyrazine-2-carbohydrazide] | > 1 | 0.5 to 1
CCOc1ccc(-c2cncc(C(=O)N/N=C/c3cc(OC4CCC4)ccc3F)n2)cn1 [Compound 21, (E)-N'-(5-cyclobutoxy-2-fluorobenzylidene)-6-(6-ethoxypyridine-3-yl)pyrazine-2-carbohydrazide] | 0.5 to 1 | < 0.5
CCOc1ccc(-c2cncc(C(=O)N/N=C/c3ncoc3C)n2)cn1 [Compound 62, (E)-6-(6-ethoxypyridine-3-yl)-N'-((5-methyloxazole-4-yl)methylene)pyrazine-2-carbohydrazide] | > 1 | 0.5 to 1
CCOc1ccc(-c2ccnc(C(=O)N/N=C/c3cc(OC)cnc3F)n2)cn1 [Compound 73, (E)-4-(6-ethoxypyridine-3-yl)-N'-((2-fluoro-5-methoxypyridine-3-yl)methylene) pyrimidine-2-carbohydrazide] | > 1 | 0.5 to 1
COc1ccc(F)c(/C=N/NC(=O)c2cncc(-c3ccc(OC4CC4)nc3)n2)c1 [Compound 77, (E)-6-(6-cyclopropoxypyridine-3-yl)-N'-(2-fluoro-5-methoxybenzylidene)pyrazine-2-carbohydrazide] | < 0.5 | < 0.5
COc1ccc(F)c(/C=N/NC(=O)c2cncc(-c3ccc(OCC(C)O)nc3)n2)c1 (centres unmarked) [Compound 138, (E)-N'-(2-fluoro-5-methoxybenzylidene)-6-(6-(2-hydroxypropoxy)pyridine-3-yl) pyrazine-2-carbohydrazide] | > 1 | > 1
Cc1ccccc1/C=N/NC(=O)c1cncc(-c2ccc(OC(F)(F)F)nc2)n1 [Compound 88, (E)-N'-(2-methylbenzylidene)-6-(6-(trifluoromethoxy)pyridine-3-yl)pyrazine-2-carbohydrazide] | < 0.5 | < 0.5
CCOc1ccc(-c2cncc(C(=O)N/N=C/c3cc(O)nc(OC)c3)n2)cn1 [Compound 43, (E)-6-(6-ethoxypyridine-3-yl)-N'-((2-hydroxy-6-methoxypyridine-4-yl)methylene) pyrazine-2-carbohydrazide] | > 1 | > 1
COc1cnc(F)c(/C=N/NC(=O)c2cncc(-c3ccc(OC(F)F)nc3)c2)c1 [Compound 128, (E)-6'-(difluoromethoxy)-N'-((2-fluoro-5-methoxypyridine-3-yl)methylene)-[3,3'-bipyridine]-5-carbohydrazide] | > 1 | > 1
CCOc1ccc(-c2cncc(C(=O)N/N=C/c3cncn3C)n2)cn1 [Compound 58, (E)-6-(6-ethoxypyridine-3-yl)-N'-((1-methyl-1H-imidazole-5-yl)methylene)pyrazine-2-carbohydrazide] | > 1 | > 1
CCOc1ccc(-c2cncc(C(=O)N/N=C/c3cc(OC4CNC4)cnc3F)n2)cn1 [Compound 34, (E)-N'-((5-(azetidin-3-yloxy)-2-fluoropyridine-3-yl)methylene)-6-(6-ethoxypyridine-3-yl) pyrazine-2-carbohydrazide] | > 1 | > 1
COc1ccc(C)c(/C=N/NC(=O)c2cncc(-c3ccc(OC(F)F)nc3)n2)c1 [Compound 102, (E)-6-(6-(difluoromethoxy)pyridine-3-yl)-N'-(5-methoxy-2-methylbenzylidene) pyrazine-2-carbohydrazide] | > 1 | < 0.5
CCOc1ccc(-c2cncc(C(=O)N/N=C/c3cc(OC4CNC4)ccc3F)n2)cn1 [Compound 20, (E)-N'-(5-(azetidine-3-yloxy)-2-fluorobenzylidene)-6-(6-ethoxypyridine-3-yl)pyrazine-2-carbohydrazide] | > 1 | > 1
CCOc1ccc(-c2nc(C(=O)N/N=C/c3cccn3C)cnc2O)cn1 [Compound 69, (E)-6-(6-ethoxypyridine-3-yl)-5-hydroxy-N'-((1-methyl-1H-pyrrole-2-yl)methylene)pyrazine-2-carbohydrazide] | > 1 | > 1
CCOc1ccc(-c2cnc(O)c(C(=O)N/N=C/c3cccn3C)n2)cn1 [Compound 70, (E)-6-(6-ethoxypyridine-3-yl)-3-hydroxy-N'-((1-methyl-1H-pyrrole-2-yl)methylene)pyrazine-2-carbohydrazide] | > 1 | > 1
[2H]C([2H])([2H])Oc1cnc(F)c(/C=N/NC(=O)c2cncc(-c3ccc(OC([2H])([2H])C)nc3)n2)c1 [Compound 172, (E)-6-(6-(ethoxy-1,1-d2)pyridine-3-yl)-N'-((2-fluoro-5-(methoxy-d3)pyridine-3-yl)methylene)pyrazine-2-carbohydrazide] | > 1 | < 0.5
